From patent publication US11643385B2, “Polymorphic forms of RAD1901-2HCl” (RADIUS PHARMACEUTICALS, INC., priority 2018, dated 2023)
Where two headings read alike, the source gives them in different places. Marks after values point to notes of the source that are not given here.

Assay: Solubility assessment and polymorph screen on amorphous RAD1901-2HCl
Assay type: physicochemical
Settings: for XRPD post 25° C. (form): after maturation at 25° C.; for XRPD post 50° C./RT (form): after maturation at 50° C./RT; for Solubility observation at 10 vol.: amorphous RAD1901-2HCl, 10 vol. solvent (solvent per sample ID)
Protocol: In a scale-up preparation of amorphous RAD1901-2HCl, RAD1901-2HCl (600 mg) was dissolved in water (20 vol., 12 mL) and filtered to remove any remaining solid particles. The solution was then aliquoted into 24 HPLC vials, frozen in a dry ice/acetone bath and the solvent removed by lyophilisation. Solids produced by lyophilization were used directly in solubility assessment and polymorph screens in Example 4.
Amorphous RAD1901-2HCl prepared as described in Example 3B was used directly in solubility assessment and polymorph screens (Table 15). XRPD patterns were further obtained for amorphous RAD1901-2HCl prepared using other solvents.
In the polymorph screen of the amorphous RAD1901-2HCl prepared as described in Example 3B, an aliquot of each sample was examined for its morphology under the microscope, both after maturing at 25° C., and after maturing at 50° C./RT. […] In some instances, the sample appeared to be a mixture of various polymorphic forms, e.g. Form 2 and Form 3 (FIGS. 18B-18C), similar to the mixture of Forms 2 and 3 in Sample 2 having an equilibrium between the two solid forms, depending on the prevailing RH.

CCNCCc1ccc(CN(CC)c2cc(OC)ccc2[C@@H]2CCc3cc(O)ccc3C2)cc1.Cl.Cl [Form B24.]
XRPD post 25° C. (form): Form 3 | XRPD post 50° C./RT (form): Form 3 | Solubility observation at 10 vol.: X (X = suspension) | Observation After maturation at 50° C. (maturation at 50° C./RT): Fine

CCNCCc1ccc(CN(CC)c2cc(OC)ccc2[C@@H]2CCc3cc(O)ccc3C2)cc1.Cl.Cl [Form B20.]
XRPD post 50° C./RT (form): Form 1 | Solubility observation at 10 vol.: X (X = suspension) | Observation After maturation at 50° C. (maturation at 50° C./RT): Crystalline

CCNCCc1ccc(CN(CC)c2cc(OC)ccc2[C@@H]2CCc3cc(O)ccc3C2)cc1.Cl.Cl [Form B14.]
XRPD post 50° C./RT (form): Poor | Solubility observation at 10 vol.: X (X = suspension)

CCNCCc1ccc(CN(CC)c2cc(OC)ccc2[C@@H]2CCc3cc(O)ccc3C2)cc1.Cl.Cl [Form B15.]
Observation After maturation at 50° C.: Fine | XRPD post 50° C./RT (form): Form 3

CCNCCc1ccc(CN(CC)c2cc(OC)ccc2[C@@H]2CCc3cc(O)ccc3C2)cc1.Cl.Cl [Form B21.]
XRPD post 25° C. (form): Form 1 | Observation After maturation at 50° C. (maturation at 50° C./RT): Needle

CCNCCc1ccc(CN(CC)c2cc(OC)ccc2[C@@H]2CCc3cc(O)ccc3C2)cc1.Cl.Cl [Form B19.]
XRPD post 25° C. (form): Form 3 | Solubility observation at 10 vol.: X (X = suspension) | Observation After maturation at 25° C.: Crystal | Observation After maturation at 50° C. (maturation at 50° C./RT): Green

CCNCCc1ccc(CN(CC)c2cc(OC)ccc2[C@@H]2CCc3cc(O)ccc3C2)cc1.Cl.Cl [Form B10.]
XRPD post 50° C./RT (form): Form 1 | Solubility observation at 10 vol.: X (X = suspension) | Observation After maturation at 50° C. (maturation at 50° C./RT): Fine

CCNCCc1ccc(CN(CC)c2cc(OC)ccc2[C@@H]2CCc3cc(O)ccc3C2)cc1.Cl.Cl [Form B12.]
XRPD post 25° C. (form): Form 3 | XRPD post 50° C./RT (form): Form 3 | Solubility observation at 10 vol.: S (S = solution) | Observation After maturation at 50° C. (maturation at 50° C./RT): Lath

CCNCCc1ccc(CN(CC)c2cc(OC)ccc2[C@@H]2CCc3cc(O)ccc3C2)cc1.Cl.Cl [Form B11.]
Solubility observation at 10 vol.: S (S = solution) | Observation After maturation at 25° C.: S | Observation After maturation at 50° C. (maturation at 50° C./RT): S

CCNCCc1ccc(CN(CC)c2cc(OC)ccc2[C@@H]2CCc3cc(O)ccc3C2)cc1.Cl.Cl [Form B1.]
XRPD post 50° C./RT (form): Amorphous | Solubility observation at 10 vol.: X (X = suspension)

CCNCCc1ccc(CN(CC)c2cc(OC)ccc2[C@@H]2CCc3cc(O)ccc3C2)cc1.Cl.Cl [Form B6.]
XRPD post 50° C./RT (form): Form 1^+ | Solubility observation at 10 vol.: X (X = suspension)

CCNCCc1ccc(CN(CC)c2cc(OC)ccc2[C@@H]2CCc3cc(O)ccc3C2)cc1.Cl.Cl [Form B8.]
XRPD post 50° C./RT (form): Form 1 | Solubility observation at 10 vol.: X (X = suspension) | Observation After maturation at 50° C. (maturation at 50° C./RT): Crystalline

CCNCCc1ccc(CN(CC)c2cc(OC)ccc2[C@@H]2CCc3cc(O)ccc3C2)cc1.Cl.Cl [Form B22.]
XRPD post 25° C. (form): Form 3 | Solubility observation at 10 vol.: S (S = solution) | Observation After maturation at 25° C.: S | Observation After maturation at 50° C. (maturation at 50° C./RT): Green

CCNCCc1ccc(CN(CC)c2cc(OC)ccc2[C@@H]2CCc3cc(O)ccc3C2)cc1.Cl.Cl [Form B4.]
XRPD post 50° C./RT (form): Form 2/3 | Solubility observation at 10 vol.: X (X = suspension)

CCNCCc1ccc(CN(CC)c2cc(OC)ccc2[C@@H]2CCc3cc(O)ccc3C2)cc1.Cl.Cl [Form B16.]
XRPD post 50° C./RT (form): Form 3*

CCNCCc1ccc(CN(CC)c2cc(OC)ccc2[C@@H]2CCc3cc(O)ccc3C2)cc1.Cl.Cl [Form B5.]
XRPD post 50° C./RT (form): Form 3 | Solubility observation at 10 vol.: X (X = suspension)

CCNCCc1ccc(CN(CC)c2cc(OC)ccc2[C@@H]2CCc3cc(O)ccc3C2)cc1.Cl.Cl [Form B13.]
XRPD post 25° C. (form): Amorphous | XRPD post 50° C./RT (form): Poor | Solubility observation at 10 vol.: X (X = suspension) | Observation After maturation at 50° C. (maturation at 50° C./RT): Some

CCNCCc1ccc(CN(CC)c2cc(OC)ccc2[C@@H]2CCc3cc(O)ccc3C2)cc1.Cl.Cl [Form B3.]
XRPD post 50° C./RT (form): Form 2/3 | Solubility observation at 10 vol.: X (X = suspension)
